{
  "source": "patent US9796714B2",
  "about": "“Calcium channel agonists” (University of Pittsburgh—Of the Commonwealth System of …, priority 2013, dated 2017)",
  "key": {"[1]": {"system": "LEMS passive transfer mouse NMJs", "assay": "Intracellular recordings at LEMS passive transfer mouse NMJs, ex vivo ETA nerve-muscle preparation (Example 3)", "experimental": "LEMS passive transfer. To test GV-58 in a LEMS model NMJ, an established LEMS passive transfer mouse model was utilized. To perform the passive transfer of LEMS, mice were injected with the serum of patients diagnosed with LEMS. […] Each serum sample was tested for the presence of voltage-gated Ca^2+ channel antibodies using a Ca^2+ channel antibody radioimmune assay (Kronus RIA kit, Star, Id.). Control serum was obtained from the University of Pittsburgh Medical Center blood bank. […]; 25-32 g; Charles River Laboratories) were divided into two groups: one group that received LEMS serum, and a control group that received control serum.\nIntracellular recordings at mouse NMJs. […] A thin upper arm muscle, the epitrochleoanconeus (ETA), was chosen for these recordings. […] […]. A train of 10 EPPs was also collected in each muscle fiber using an inter-stimulus interval of 20 msec. To analyze the data, both the amplitudes and the areas under the waveforms (integral) were determined after correcting each digitized point in each trace for non-linear summation. Data were collected and analyzed using an Axoclamp 900A and the pClamp 10 suite of programs (Molecular Devices, Sunnyvale, Calif.).\nStatistical Analysis. […] For the dose-response analyses on Ca^2+ current, each concentration of the four different compounds was tested in 3-6 cells. […]. All EC50 and IC50 values and their respective errors were determined by performing 100 iterations of a logistic function curve fit."}, "[2]": {"molecular_target": "T1, P/Q-type channels (Cav 2.1) (Rattus norvegicus, UniProt P54282)", "T1 construct": "host or cells: tsA-201", "T1 sequence (P54282 whole entry)": "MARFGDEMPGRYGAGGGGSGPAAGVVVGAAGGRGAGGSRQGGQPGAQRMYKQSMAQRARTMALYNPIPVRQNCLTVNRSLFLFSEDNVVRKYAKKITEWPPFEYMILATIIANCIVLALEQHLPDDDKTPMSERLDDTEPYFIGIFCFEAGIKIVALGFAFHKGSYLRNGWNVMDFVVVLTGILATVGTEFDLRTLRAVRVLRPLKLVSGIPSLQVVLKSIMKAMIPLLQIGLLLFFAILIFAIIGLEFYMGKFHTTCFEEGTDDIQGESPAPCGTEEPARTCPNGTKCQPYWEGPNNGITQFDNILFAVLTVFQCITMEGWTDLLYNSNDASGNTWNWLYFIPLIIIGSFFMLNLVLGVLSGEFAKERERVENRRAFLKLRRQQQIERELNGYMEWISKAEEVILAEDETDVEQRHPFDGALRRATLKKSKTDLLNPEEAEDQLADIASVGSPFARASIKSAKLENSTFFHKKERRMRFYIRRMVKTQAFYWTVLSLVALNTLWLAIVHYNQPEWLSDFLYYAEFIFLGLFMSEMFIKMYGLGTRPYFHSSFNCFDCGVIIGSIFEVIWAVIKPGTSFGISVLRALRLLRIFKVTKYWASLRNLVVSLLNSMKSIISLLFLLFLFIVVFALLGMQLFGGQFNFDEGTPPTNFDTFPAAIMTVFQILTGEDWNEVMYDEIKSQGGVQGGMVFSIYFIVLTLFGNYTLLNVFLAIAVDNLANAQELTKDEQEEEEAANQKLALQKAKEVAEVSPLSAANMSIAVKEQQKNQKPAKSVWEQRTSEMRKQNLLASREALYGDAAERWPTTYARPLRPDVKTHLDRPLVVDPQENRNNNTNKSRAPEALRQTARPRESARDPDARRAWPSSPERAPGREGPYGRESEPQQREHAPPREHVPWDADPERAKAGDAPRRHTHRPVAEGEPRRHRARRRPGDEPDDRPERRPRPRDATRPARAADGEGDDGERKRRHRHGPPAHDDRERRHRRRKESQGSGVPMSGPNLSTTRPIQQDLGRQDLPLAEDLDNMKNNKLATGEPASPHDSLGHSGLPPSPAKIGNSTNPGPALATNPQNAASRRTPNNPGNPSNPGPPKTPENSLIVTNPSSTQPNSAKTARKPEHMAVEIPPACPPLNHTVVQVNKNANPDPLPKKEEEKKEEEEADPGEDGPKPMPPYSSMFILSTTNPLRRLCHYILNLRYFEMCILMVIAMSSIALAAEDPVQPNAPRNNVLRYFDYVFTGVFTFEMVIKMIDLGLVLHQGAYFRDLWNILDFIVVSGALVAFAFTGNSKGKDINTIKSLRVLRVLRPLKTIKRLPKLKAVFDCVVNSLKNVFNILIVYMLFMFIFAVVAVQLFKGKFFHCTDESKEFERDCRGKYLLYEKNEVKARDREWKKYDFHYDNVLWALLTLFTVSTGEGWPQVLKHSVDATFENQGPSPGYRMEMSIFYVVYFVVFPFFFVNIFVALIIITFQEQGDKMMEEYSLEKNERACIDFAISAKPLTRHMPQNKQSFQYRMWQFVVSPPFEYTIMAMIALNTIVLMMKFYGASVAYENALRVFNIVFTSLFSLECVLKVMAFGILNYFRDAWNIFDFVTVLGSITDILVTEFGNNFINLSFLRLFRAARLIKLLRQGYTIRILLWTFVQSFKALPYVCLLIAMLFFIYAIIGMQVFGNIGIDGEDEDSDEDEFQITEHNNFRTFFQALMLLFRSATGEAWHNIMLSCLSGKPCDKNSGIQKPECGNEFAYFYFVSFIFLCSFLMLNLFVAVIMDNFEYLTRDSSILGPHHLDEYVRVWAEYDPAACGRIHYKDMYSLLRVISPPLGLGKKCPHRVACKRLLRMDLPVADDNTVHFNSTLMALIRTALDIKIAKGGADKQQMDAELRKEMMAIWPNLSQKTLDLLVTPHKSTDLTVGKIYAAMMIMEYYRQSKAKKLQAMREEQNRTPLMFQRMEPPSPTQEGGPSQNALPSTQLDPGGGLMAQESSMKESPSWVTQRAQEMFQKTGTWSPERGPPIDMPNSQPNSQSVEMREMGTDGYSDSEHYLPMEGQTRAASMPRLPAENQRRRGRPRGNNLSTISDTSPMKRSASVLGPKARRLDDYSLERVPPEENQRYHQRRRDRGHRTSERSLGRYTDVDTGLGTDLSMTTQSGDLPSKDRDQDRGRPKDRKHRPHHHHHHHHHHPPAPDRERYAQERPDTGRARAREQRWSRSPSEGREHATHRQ", "assay": "P/Q-type Ca2+ channel agonist activity, whole-cell perforated patch clamp in tsA-201 cells", "format": "cell-based", "experimental": "tsA201 cells expressing calcium channels. […] For subsequent evaluation of effects on N-, P/Q-, or L-type channels, tsA-201 cells were transiently transfected with Cav2.2, Cav2.1, or Cav1.3, in combination with Cavβ3 and […] (Addgene, Cambridge Mass.) using FuGENE 6 (Life Technologies, Grand Island, N.Y.). All cells were maintained in DMEM supplemented with 10% fetal bovine serum. For the stable cell line expressing N-type channels, 25 μg/mL zeocin, 5 μg/mL blasticidin, and 25 μg/mL hygromycin were added as selection agents.\nWhole-cell patch clamp recordings of calcium current. […] Briefly, the pipette solution consisted of […] Cs2SO4, 60 mM CsCl, 1 mM MgCl2, 10 mM 4-(2-hydroxyethyl)-1-piperazineethanesulfonic acid (HEPES) at pH 7.4. […] Patch pipettes were fabricated from borosilicate glass and pulled to a resistance of about 1 MΩ. Before each experiment, a stock solution consisting of 3 mg amphotericin-B dissolved into 50 μL anhydrous DMSO was made. […] Capacitive currents and passive membrane responses to voltage commands were subtracted from the data. Currents were amplified by an Axopatch 200B amplifier, filtered at 5 KHz, and digitized at 10 KHz for subsequent analysis using pClamp software (Axon Instruments/Molecular Devices; Sunnyvale, Calif.). […] To measure effects on calcium channel tail currents, the tail current integral was measured before and after application of a derivative, with the integral of each trace being normalized to its peak. All experiments were carried out at room temperature (22° C.). […] All other salts and chemicals were obtained from Sigma-Aldrich chemical company (St. Louis, Mo.).\nCapacitive currents and passive membrane responses to voltage commands were subtracted from the data. […] All experiments were carried out at room temperature (22° C.)."}, "cdk2 cyclinA(h)": {"molecular_target": "T2, cdk2 cyclinA(h) (Homo sapiens, UniProt P24941)", "T2 construct": "purchased EMD Millipore KinaseProfiler service (Millipore UK Ltd.)", "assay": "Kinase inhibitory activity (EMD Millipore KinaseProfiler), cdk2", "format": "biochemical", "experimental": "Kinase inhibitory activity. Kinase inhibitory activities were determined using the EMD Millipore KinaseProfiler™ service (Millipore UK Ltd.). Each compound's kinase inhibitory activity was tested at three different concentrations (0.2 μM, 2 μM, and 20 μM) against five different kinases: Cdk1 cyclinB(h), cdk2 cyclinA(h), cdk5 p35(h), mitogen-activated protein kinase (MAPK1(h)) and myosin light-chain kinase (MLCK(h)).\nStatistical Analysis. […] For the dose-response analyses on Ca^2+ current, each concentration of the four different compounds was tested in 3-6 cells. […] All EC50 and IC50 values and their respective errors were determined by performing 100 iterations of a logistic function curve fit."}},
  "note": "Several values for one entry are separate records, joined by “and”; a condition that tells them apart may be missing. Equal values may be shown once. Read-outs that look alike come from different tables or passages of the source.",
  "data": [
    {"smiles": "CCCn1cnc2c(NCc3ccc(C)s3)nc(N[C@H](CC)CO)nc21", "note": "[Compound 13x, (2R)-2-[(6-{[(5-Methylthiophen-2-yl)methyl]amino}-9-propyl-9H-purin-2-yl)amino]butan-1-ol]", "values": [
      {"measurement": "increase of the strength of neuromuscular transmission", "setting": "[1]", "result": "about 50%"},
      {"measurement": "EPP 90% to 10% decay time", "setting": "[1]; 50 μM", "result": "6.79 ± 0.11", "unit": "ms"},
      {"measurement": "EPP full width at half maximum (FWHM)", "setting": "[1]; 50 μM", "result": "3.90 ± 0.07", "unit": "ms"},
      {"measurement": "final EPP in 50 Hz train of 10 stimuli, normalized to the first EPP", "setting": "[1]; 50 μM", "result": "about 94%"},
      {"measurement": "mEPP frequency", "setting": "[1]; 50 μM", "result": "10.45 ± 0.64", "unit": "s⁻¹"},
      {"measurement": "increase of quantal content when measuring area", "setting": "[1]; 50 μM vs vehicle", "result": "~92", "unit": "%"},
      {"measurement": "increase of quantal content when measuring peak", "setting": "[1]; 50 μM vs vehicle", "result": "~62", "unit": "%"},
      {"measurement": "mean change in mEPP amplitude", "setting": "[1]; 50 μM, relative to vehicle", "result": "1.00±0.02"},
      {"measurement": "EPP amplitude", "setting": "[1]; aBC2 serum NMJs, 30-minute incubation in 50 μM", "result": "19.44±0.98", "unit": "mV"},
      {"measurement": "increase of the tail current integral compared to control", "setting": "[2]; P/Q-type channels", "result": "~33", "unit": "fold"},
      {"measurement": "EC50", "setting": "[2]; b265, read-out: agonist effects on P/Q-type calcium channels EC50", "result": 9.9, "unit": "µM"},
      {"measurement": "EC50", "setting": "[2]; calcium channel agonist, Cav 2.1, read-out: P/Q-type EC50/IC50 affinities", "result": "8.8 µM and 8.81 µM"},
      {"measurement": "EC50", "setting": "[2]; read-out: 95% confidence interval for a fit (EC50) to P/Q channels data", "result": "6.7 to 14.5", "unit": "µM"},
      {"measurement": "IC50", "setting": "cdk2 cyclinA(h); 20 μM highest concentration used, read-out: Cdk2 EC50/IC50 affinities", "result": "3.29 ± 0.43", "unit": "µM"},
      {"measurement": "EC50", "setting": "cdk2 cyclinA(h); determined in duplicate at 0.2, 2, and 20 μM, read-out: Cdk2 Activity EC50 +/− SEM", "result": 3, "unit": "µM"}
    ]}
  ]
}
